Assay results: US10155021B2, “Antimicrobial 4-oxoquinolizines” (Emergent Product Development Gaithersburg Inc., priority 2011, dated 2018)
Converted amounts (≈) assume the structure as drawn. Where two headings read alike, the source gives them in different places.

Experiments:
[1] = test system: resistant strains of A. baumannii and one strain of Acinetobacter sp.; assay: MIC without and with sub-inhibitory polymyxin B, whole panel / MIC ranges (Example 4; also strains not listed separately); format: cell-based; conditions: for MIC +0.06 μg/ml PB: +0.06 μg/ml polymyxin B; for MIC without PB/MIC + PB: ratio; for MIC +[…] PB: +[…] polymyxin B; for MIC: Acinetobacter baumannii
[2] = test system: A. baumannii ATCC 19606; assay: MIC without and with sub-inhibitory polymyxin B (Example 4); format: cell-based, Acinetobacter baumannii; conditions: for MIC +0.06 μg/ml PB / MIC without PB/MIC + PB: A. baumannii ATCC 19606; for MIC +0.06 μg/ml PB: +0.06 μg/ml polymyxin B; for MIC without PB/MIC + PB: ratio, PB 0.06 μg/ml; for MIC: Acinetobacter baumannii, ATCC19606, A. baumannii ATCC 19606, without polymyxin B
[3] = test system: A. baumannii A401; assay: Preliminary MBC without and with sub-inhibitory polymyxin B (Example 4); format: cell-based, Acinetobacter baumannii; conditions: preliminary MBC; for MBC +0.06 μg/ml PB: A baumannii A 401, +0.06 μg/ml polymyxin B; for MBC: Acinetobacter baumannii, A401, A baumannii A 401, without polymyxin B, read-out: MBC without PB
[4] = test system: A. baumannii A472; assay: MIC determination for Acinetobacter strains (Example 3); format: cell-based; conditions: LEV R, CIP R, MRP I, IMP I, AMK R, TET R
[5] = test system: Acinetobacter sp. (H064200250); assay: MIC without and with sub-inhibitory polymyxin B (Example 4); format: cell-based; conditions: for MIC +[…] PB: +[…] polymyxin B; for MIC without PB/MIC + PB: ratio; for MIC: Acinetobacter, without polymyxin B, read-out: MIC without PB
[6] = test system: A. baumannii A489; assay: as above; format: cell-based, Acinetobacter baumannii; conditions: for MIC +[…] PB / MIC without PB/MIC + PB: A. baumannii A489; for MIC +[…] PB: +[…] polymyxin B; for MIC without PB/MIC + PB: ratio; for MIC: Acinetobacter baumannii, A489, A. baumannii A489, without polymyxin B, read-out: MIC without PB
[7] = test system: A. baumannii A401; assay: as above; format: cell-based, Acinetobacter baumannii; conditions: for MIC +0.06 μg/ml PB: +0.06 μg/ml polymyxin B
[8] = Acinetobacter spp. H064200250 (OXA51), 2nd experiment, visual reading
[9] = Acinetobacter spp. H064200250, 1st experiment

Compound: C[C@@H](O)[C@H]1C(=O)N2C(C(=O)O)=C(SCCN=CN)C[C@H]12 [Imipenem, reference compound]
- Range ratios MIC without PB/MIC with PB 01-10-2008 n = 8 ([1]; 1st experiment, 8 strains): 1-64
- Range ratios MIC without PB/MIC with PB 14-10-2008 n = 11 ([1]; 2nd experiment, 11 strains): 1-256
- MIC +0.06 μg/ml PB ([1]; A. baumannii A14, 1st experiment): 1 µg/mL
- MIC +0.06 μg/ml PB ([1]; A. baumannii A14, 2nd experiment, visual reading): 1 µg/mL
- MIC without PB/MIC + PB ([1]; A. baumannii A14, PB 0.06 μg/ml, 1st experiment): 1
- MIC without PB/MIC + PB ([1]; A. baumannii A14, PB 0.06 μg/ml, 2nd experiment): 1
- MIC +[…] PB ([1]; A. baumannii NCTC 13301, 1st experiment): 16 µg/mL (≈ 53.4 µM)
- MIC +[…] PB ([1]; A. baumannii NCTC 13301, 2nd experiment, visual reading): 1 µg/mL (≈ 3.34 µM)
- MIC without PB/MIC + PB ([1]; A. baumannii NCTC 13301, PB […], 1st experiment): 8
- MIC without PB/MIC + PB ([1]; A. baumannii NCTC 13301, PB […], 2nd experiment): 128
- MIC ([1]; A. baumannii A14, without polymyxin B, 1st experiment, read-out: MIC without PB): 1 µg/mL (≈ 3.34 µM)
- MIC ([1]; A. baumannii A14, without polymyxin B, 2nd experiment, visual reading, read-out: MIC without PB): 1 µg/mL (≈ 3.34 µM)
- MIC ([1]; NCTC13301, A. baumannii NCTC 13301, without polymyxin B, 1st experiment, read-out: MIC without PB): 128 µg/mL (≈ 428 µM)
- MIC ([1]; NCTC13301, A. baumannii NCTC 13301, without polymyxin B, 2nd experiment, visual reading, read-out: MIC without PB): 128 µg/mL (≈ 428 µM)
- MIC ([1]; read-out: MIC range without PB 01-10-2008 n = 8, without polymyxin B, 1st experiment, 8 strains): 1 to 128 µg/mL (≈ 3.34 to 428 µM)
- MIC range with PB ([…] MIC) 01-10-2008 n = 8 ([1]; with polymyxin B […] MIC, 1st experiment, 8 strains): <0.125-16 μg/ml
- MIC +0.06 μg/ml PB ([2]; 1st experiment): 1 µg/mL
- MIC +0.06 μg/ml PB ([2]; 2nd experiment, visual reading): 1 µg/mL
- MIC without PB/MIC + PB ([2]; 1st experiment): 2
- MIC without PB/MIC + PB ([2]; 2nd experiment): 1
- MIC ([2]; 1st experiment, read-out: MIC without PB): 2 µg/mL (≈ 6.68 µM)
- MIC ([2]; 2nd experiment, second reading marked *, mark not explained, read-out: MIC without PB, value in parentheses marked *): 4 µg/mL (≈ 13.4 µM)
- MIC ([2]; 2nd experiment, visual reading, read-out: MIC without PB): 1 µg/mL (≈ 3.34 µM)
- MBC +0.06 μg/ml PB ([3]; 2nd experiment): 4 µg/mL
- MBC +0.06 μg/ml PB ([3]; 1st experiment): 8 µg/mL
- MBC ([3]; 2nd experiment): 32 µg/mL (≈ 107 µM)
- MBC ([3]; 1st experiment): 32 µg/mL (≈ 107 µM)
- MIC [4]: 16 µg/mL (≈ 53.4 µM)
- MIC +[…] PB [5, 8]: 0.5 µg/mL (≈ 1.67 µM)
- MIC without PB/MIC + PB ([5]; Acinetobacter spp. H064200250 (OXA51), 2nd experiment): 16
- MIC +[…] PB [5, 9]: 0.5 µg/mL (≈ 1.67 µM)
- MIC without PB/MIC + PB [5, 9]: 32
- MIC [5, 8]: 8 µg/mL (≈ 26.7 µM)
- MIC [5, 9]: 16 µg/mL (≈ 53.4 µM)
- MIC +[…] PB ([6]; 1st experiment): 2 µg/mL (≈ 6.68 µM)
- MIC +[…] PB ([6]; 2nd experiment, visual reading): 0.25 µg/mL (≈ 0.835 µM)
- MIC without PB/MIC + PB ([6]; 1st experiment): 64
- MIC without PB/MIC + PB ([6]; 2nd experiment): 256
- MIC ([6]; 1st experiment): 128 µg/mL (≈ 428 µM)
- MIC ([6]; 2nd experiment, visual reading): 64 µg/mL (≈ 214 µM)
- MIC +0.06 μg/ml PB ([7]; A baumannii A 401, 1st experiment): 8 µg/mL
- MIC +0.06 μg/ml PB ([7]; A baumannii A 401, 2nd experiment, visual reading): 4 µg/mL
- MIC ratio without/with polymyxin B ([7]; A baumannii A 401, ratio MIC without PB to MIC + PB, PB 0.06 μg/ml, 2nd experiment): 8 µg/mL
- MIC without PB/MIC + PB ([7]; A baumannii A 401, ratio, PB 0.06 μg/ml, 1st experiment): 4
- MIC ([7]; Acinetobacter baumannii, A401, A baumannii A 401, without polymyxin B, 1st experiment, read-out: MIC without PB): 32 µg/mL (≈ 107 µM)
